Assay results: paper PMC9963398, “Discovery of New Quinolone-Based Diarylamides as Potent B-RAF^V600E/C-RAF Kinase Inhibitors Endowed with Promising In Vitro Anticancer Activity” (International Journal of Molecular Sciences, 2023)

Key:
[1] = test system: CCRF-CEM; test: NCI-60 five-dose SRB assay; assay type: cell-based; settings: Homo sapiens, Leukemia, five-dose test
Method: (§1) The anticancer screening of target compounds over a full panel of 60 human cancer cell lines was carried out using Sulforhodamine B (SRB) assay at the National Cancer Institute (NCI), Bethesda, Maryland, USA, employing the standard protocol.

[2] = test system: T-47D; test: NCI-60 five-dose SRB assay; assay type: cell-based; settings: Homo sapiens, T47D, Breast cancer, five-dose test
Method: as §1

[3] = test system: HCT-116; test: NCI-60 five-dose SRB assay; assay type: cell-based; settings: Homo sapiens; HCT-116, Colon cancer, five-dose test
Method: as §1

[4] = test system: OVCAR-5; test: NCI-60 five-dose SRB assay; assay type: cell-based; settings: Homo sapiens; OVCAR-5, Ovarian cancer, five-dose test
Method: as §1

[5] = test system: MCF7; test: NCI-60 five-dose SRB assay; assay type: cell-based; settings: Homo sapiens; MCF7, Breast cancer, five-dose test
Method: as §1

[6] = test system: DU-145; test: NCI-60 five-dose SRB assay; assay type: cell-based; settings: Homo sapiens; DU-145, Prostate cancer, five-dose test
Method: as §1

[7] = test system: OVCAR-8; test: NCI-60 five-dose SRB assay; assay type: cell-based; settings: Homo sapiens; OVCAR-8, Ovarian cancer, five-dose test
Method: as §1

[8] = test system: OVCAR-3; test: NCI-60 five-dose SRB assay; assay type: cell-based; settings: Homo sapiens; OVCAR-3, Ovarian cancer, five-dose test
Method: as §1

[9] = test system: SW-620; test: NCI-60 five-dose SRB assay; assay type: cell-based; settings: Homo sapiens; SW-620, Colon cancer, five-dose test
Method: as §1

[10] = test system: RPMI-8226; test: NCI-60 five-dose SRB assay; assay type: cell-based; settings: Homo sapiens; RPMI-8226, Leukemia, five-dose test
Method: as §1

[11] = test system: BT-549; test: NCI-60 five-dose SRB assay; assay type: cell-based; settings: Homo sapiens; BT-549, Breast cancer, five-dose test
Method: as §1

[12] = test system: NCI-H522; test: NCI-60 five-dose SRB assay; assay type: cell-based; settings: Homo sapiens; NCI-H522, NSCL cancer, five-dose test
Method: as §1

[13] = test system: A549/ATCC; test: NCI-60 five-dose SRB assay; assay type: cell-based; settings: Homo sapiens, NSCL cancer, five-dose test
Method: as §1

[14] = test system: 786-0; test: NCI-60 five-dose SRB assay; assay type: cell-based; settings: Homo sapiens; 786-0, Renal cancer, five-dose test
Method: as §1

[15] = test system: NCI-H23; test: NCI-60 five-dose SRB assay; assay type: cell-based; settings: Homo sapiens; NCI-H23, NSCL cancer, five-dose test
Method: as §1

[16] = test system: OVCAR-4; test: NCI-60 five-dose SRB assay; assay type: cell-based; settings: Homo sapiens; OVCAR-4, Ovarian cancer, five-dose test
Method: as §1

[17] = test system: RXF 393; test: NCI-60 five-dose SRB assay; assay type: cell-based; settings: Homo sapiens; RXF 393, Renal cancer, five-dose test
Method: as §1

[18] = test system: SK-MEL-28; test: NCI-60 five-dose SRB assay; assay type: cell-based; settings: Homo sapiens; SK-MEL-28, Melanoma, five-dose test
Method: as §1

[19] = test system: NCI-H226; test: NCI-60 five-dose SRB assay; assay type: cell-based; settings: Homo sapiens; NCI-H226, NSCL cancer, five-dose test
Method: as §1

[20] = test system: MALME-3M; test: NCI-60 five-dose SRB assay; assay type: cell-based; settings: Homo sapiens, Melanoma, five-dose test
Method: as §1

[21] = test system: NCI-H460; test: NCI-60 five-dose SRB assay; assay type: cell-based; settings: Homo sapiens; NCI-H460, NSCL cancer, five-dose test
Method: as §1

[22] = test system: SN12C; test: NCI-60 five-dose SRB assay; assay type: cell-based; settings: Homo sapiens, Renal cancer, five-dose test
Method: as §1

[23] = test system: SF-268; test: NCI-60 five-dose SRB assay; assay type: cell-based; settings: Homo sapiens; SF-268, CNS cancer, five-dose test
Method: as §1

[24] = test system: SK-OV-3; test: NCI-60 five-dose SRB assay; assay type: cell-based; settings: Homo sapiens; SK-OV-3, Ovarian cancer, five-dose test
Method: as §1

[25] = test system: HCT-15; test: NCI-60 five-dose SRB assay; assay type: cell-based; settings: Homo sapiens; HCT-15, Colon cancer, five-dose test
Method: as §1

[26] = test system: K-562; test: NCI-60 five-dose SRB assay; assay type: cell-based; settings: Homo sapiens, K562; K-562, Leukemia, five-dose test
Method: as §1

[27] = test system: ACHN; test: NCI-60 five-dose SRB assay; assay type: cell-based; settings: Homo sapiens, Renal cancer, five-dose test
Method: as §1

[28] = test system: IGROV1; test: NCI-60 five-dose SRB assay; assay type: cell-based; settings: Homo sapiens, IGROV-1; IGROV1, Ovarian cancer, five-dose test
Method: as §1

[29] = test system: COLO 205; test: NCI-60 five-dose SRB assay; assay type: cell-based; settings: Homo sapiens; COLO 205, Colon cancer, five-dose test
Method: as §1

[30] = test system: SNB-75; test: NCI-60 five-dose SRB assay; assay type: cell-based; settings: Homo sapiens; SNB-75, CNS cancer, five-dose test
Method: as §1

[31] = test system: KM12; test: NCI-60 five-dose SRB assay; assay type: cell-based; settings: Homo sapiens; KM12, Colon cancer, five-dose test
Method: as §1

[32] = test system: UACC-257; test: NCI-60 five-dose SRB assay; assay type: cell-based; settings: Homo sapiens; UACC-257, Melanoma, five-dose test
Method: as §1

[33] = test system: EKVX; test: NCI-60 five-dose SRB assay; assay type: cell-based; settings: Homo sapiens, NSCL cancer, five-dose test
Method: as §1

[34] = test system: UACC-62; test: NCI-60 five-dose SRB assay; assay type: cell-based; settings: Homo sapiens; UACC-62, Melanoma, five-dose test
Method: as §1

[35] = test system: HOP-62; test: NCI-60 five-dose SRB assay; assay type: cell-based; settings: Homo sapiens; HOP-62, NSCL cancer, five-dose test
Method: as §1

[36] = test system: SK-MEL-5; test: NCI-60 five-dose SRB assay; assay type: cell-based; settings: Homo sapiens; SK-MEL-5, Melanoma, five-dose test
Method: as §1

[37] = test system: A498; test: NCI-60 five-dose SRB assay; assay type: cell-based; settings: Homo sapiens; A498, Renal cancer, five-dose test
Method: as §1

[38] = biological target: T1, B-RAF^V600E (Homo sapiens, UniProt P15056, V600E); test: HotSpot kinase assay (RBC), B-RAF^V600E; assay type: biochemical; settings: 10 µM ATP, 10-dose singlicate IC50 mode
T1 construct: purchased Reaction Biology Corporation (RBC), Kinase HotSpot service

[39] = test system: PC-3; test: cells; settings: Homo sapiens
Method: as §1

[40] = test system: MDA-MB-231/ATCC; test: cells; settings: Homo sapiens
Method: as §1

[41] = test system: MDA-MB-468; test: cells; settings: Homo sapiens
Method: as §1

[42] = test system: SR; test: NCI-60 five-dose SRB assay; assay type: cell-based; settings: Homo sapiens, Leukemia, five-dose test
Method: as §1

T1 sequence (P15056 whole entry V600E): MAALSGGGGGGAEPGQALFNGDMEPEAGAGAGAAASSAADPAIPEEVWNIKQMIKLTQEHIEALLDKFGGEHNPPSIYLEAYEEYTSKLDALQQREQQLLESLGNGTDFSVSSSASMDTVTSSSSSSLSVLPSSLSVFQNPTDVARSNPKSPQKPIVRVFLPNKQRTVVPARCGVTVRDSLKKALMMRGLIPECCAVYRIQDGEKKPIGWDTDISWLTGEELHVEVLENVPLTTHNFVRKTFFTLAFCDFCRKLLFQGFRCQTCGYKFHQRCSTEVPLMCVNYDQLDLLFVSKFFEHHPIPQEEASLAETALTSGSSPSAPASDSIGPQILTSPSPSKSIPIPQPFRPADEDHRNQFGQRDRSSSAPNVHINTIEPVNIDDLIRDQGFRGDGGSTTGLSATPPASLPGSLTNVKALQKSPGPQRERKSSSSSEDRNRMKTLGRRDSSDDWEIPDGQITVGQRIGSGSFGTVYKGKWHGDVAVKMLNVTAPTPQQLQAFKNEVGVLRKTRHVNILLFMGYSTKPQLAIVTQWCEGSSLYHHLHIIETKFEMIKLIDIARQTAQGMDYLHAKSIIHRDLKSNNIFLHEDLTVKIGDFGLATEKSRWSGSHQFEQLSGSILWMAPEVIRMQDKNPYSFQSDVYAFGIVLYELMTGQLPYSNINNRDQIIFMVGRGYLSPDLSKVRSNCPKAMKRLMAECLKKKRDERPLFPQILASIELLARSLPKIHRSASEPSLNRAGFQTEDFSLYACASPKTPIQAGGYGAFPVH

`COc1cccc2nc(Nc3cccc(NC(=O)c4ccc(CN5CCCN(C)CC5)c(C(F)(F)F)c4)c3)ccc12` [Compound 14b, N-(3-((5-methoxyquinolin-2-yl)amino)phenyl)-4-((4-methyl-1,4-diazepan-1-yl)methyl)-3-(trifluoromethyl)benzamide] gave a GI50 [1] of 1620 nM, a GI50 [2] of 5430 nM and a GI50 [3] of 1670 nM. For the same molecule, the GI50 [4] was 1710 nM, the GI50 [5] was 1590 nM and the GI50 [6] was 2190 nM. For the same molecule, the GI50 [7] was 2030 nM, the GI50 [8] was 2140 nM and the GI50 [9] was 1750 nM. For the same molecule, the GI50 [10] was 1930 nM, the GI50 [11] was 2060 nM and the GI50 [12] was 1760 nM. It also gave a GI50 [13] of 1900 nM, a GI50 [14] of 1720 nM and a GI50 [15] of 1680 nM. It also gave a GI50 [16] of 2670 nM, a GI50 [17] of 1660 nM and a GI50 [18] of 1680 nM. It also gave a GI50 [19] of 1940 nM, a GI50 [20] of 1720 nM and a GI50 [21] of 1760 nM. The GI50 [22] was 1630 nM, the GI50 [23] was 1770 nM and the GI50 [24] was 4330 nM. The GI50 [25] was 1620 nM, the GI50 [26] was 1230 nM and the GI50 [27] was 1870 nM. The GI50 [28] was 1810 nM, the GI50 [29] was 1810 nM and the GI50 [30] was 1520 nM. For the same molecule, the GI50 [31] was 2490 nM, the GI50 [32] was 1860 nM and the GI50 [33] was 1720 nM. It also gave a GI50 [34] of 1810 nM, a GI50 [35] of 1760 nM and a GI50 [36] of 1710 nM. The GI50 [37] was 13500 nM, the IC50 [38] was 355 ± 10.8 nM and the GI50 [39] was 1540 nM. The GI50 [40] was 1830 nM and the GI50 [41] was 1560 nM.

Molecule `CN1CCCN(Cc2ccc(C(=O)Nc3cccc(Nc4ccc5c(O)cccc5n4)c3)cc2C(F)(F)F)CC1` [Compound 17b, N-(3-((5-hydroxyquinolin-2-yl)amino)phenyl)-4-((4-methyl-1,4-diazepan-1-yl)methyl)-3-(trifluoromethyl)benzamide] has a GI50 [1] of 2070 nM, a GI50 [2] of 3460 nM and a GI50 [3] of 1620 nM. It also gave a GI50 [4] of 11400 nM, a GI50 [5] of 1680 nM and a GI50 [6] of 3270 nM. For the same molecule, the GI50 [7] was 2510 nM, the GI50 [8] was 1970 nM and the GI50 [9] was 1950 nM. It also gave a GI50 [10] of 2890 nM, a GI50 [11] of 1800 nM and a GI50 [12] of 1840 nM. The GI50 [13] was 3630 nM, the GI50 [14] was 2060 nM and the GI50 [15] was 1780 nM. It also gave a GI50 [16] of 3830 nM, a GI50 [17] of 1850 nM and a GI50 [18] of 1820 nM. It also gave a GI50 [19] of 16700 nM, a GI50 [20] of 1700 nM and a GI50 [21] of 1810 nM. The GI50 [22] was 1830 nM, the GI50 [23] was 2140 nM and the GI50 [24] was 11100 nM. It also gave a GI50 [25] of 1930 nM, a GI50 [26] of 2180 nM and a GI50 [27] of 1920 nM. It also gave a GI50 [28] of 2560 nM, a GI50 [29] of 1830 nM and a GI50 [30] of 1320 nM. For the same molecule, the GI50 [31] was 1980 nM, the GI50 [32] was 1600 nM and the GI50 [33] was 1820 nM. It also gave a GI50 [34] of 1690 nM, a GI50 [35] of 2030 nM and a GI50 [36] of 1720 nM. For the same molecule, the GI50 [37] was 15300 nM, the IC50 [38] was 128 ± 0.05 nM and the GI50 [39] was 1870 nM. The GI50 [40] was 1650 nM and the GI50 [41] was 1660 nM.

Molecule `CN1CCCN(Cc2ccc(C(=O)Nc3cccc(Nc4ccc5cc(O)ccc5n4)c3)cc2C(F)(F)F)CC1` [Compound 18b, N-(3-((6-hydroxyquinolin-2-yl)amino)phenyl)-4-((4-methyl-1,4-diazepan-1-yl)methyl)-3-(trifluoromethyl)benzamide] has a GI50 [1] of 4940 nM, a GI50 [42] of 1890 nM and a GI50 [2] of 15800 nM. It also gave a GI50 [3] of 6510 nM, a GI50 [4] of 15300 nM and a GI50 [5] of 9830 nM. It also gave a GI50 [6] of 16900 nM, a GI50 [7] of 18900 nM and a GI50 [8] of 16300 nM. For the same molecule, the GI50 [9] was 14500 nM, the GI50 [10] was 11400 nM and the GI50 [12] was 17000 nM. The GI50 [13] was 16200 nM, the GI50 [14] was 16000 nM and the GI50 [15] was 16800 nM. The GI50 [16] was 15000 nM, the GI50 [17] was 12500 nM and the GI50 [18] was 13900 nM. It also gave a GI50 [19] of 13800 nM, a GI50 [20] of 12600 nM and a GI50 [21] of 18000 nM. For the same molecule, the GI50 [22] was 17300 nM, the GI50 [23] was 17300 nM and the GI50 [24] was 17600 nM. The GI50 [25] was 16400 nM, the GI50 [26] was 1180 nM and the GI50 [27] was 19700 nM. The GI50 [28] was 17200 nM, the GI50 [29] was 18500 nM and the GI50 [30] was 1170 nM. It also gave a GI50 [31] of 14100 nM, a GI50 [32] of 14700 nM and a GI50 [33] of 16000 nM. The GI50 [34] was 15900 nM, the GI50 [35] was 17800 nM and the GI50 [36] was 16100 nM. The GI50 [37] was 17600 nM, the IC50 [38] was 227 ± 3.55 nM and the GI50 [39] was 13100 nM. It also gave a GI50 [40] of 13900 nM and a GI50 [41] of 8880 nM.
